Reference: US9388126B2, “Sigma receptor ligands and methods of modulating cellular protein homeostasis using same” (Drexel University, priority 2012, dated 2016)

Legend:
Type in all cases: cell-based, human
HER2/3 in SkBr-3 cells = experiment: HER2 and HER3 level immunoblots; conditions: 10 μM for 1-to-24 hours; 1, 3, 10, 20 μM for 12 hours
Text: FIG. 67, comprising FIGS. 67A-67F, illustrates the finding that Sigma1 ligands may be used to modulate (in this case, decrease) the levels of growth factor receptors such as HER2 and HER3 in breast cancer cells, in the absence of detectable cell death. […] Short exposure to IPAG or lower dosage induces ubiquitin-mediated autophagosomal degradation of HER2/3. Prolonged IPAG treatment or higher dosage caused translational arrest. […] FIG. 67A is a set of immunoblots of HER2 following treatment with IPAG. Detergent soluble whole-cell lysates were solved by denaturing SDS-PAGE. (i) 1-to-24 hour (h) treatment with 10 μM IPAG or 11 μM thapsigargin (TG). (ii) Following 12 hour treatment with 1, 3, 10, 20 μM IPAG. FIG. 67B is a set of immunoblots of HER3 following treatment with IPAG. Detergent soluble whole-cell lysates were solved by denaturing SDS-PAGE. (i) 1-to-24 hour (h) treatment with 10 μM IPAG or 1 μM thapsigargin (TG). (ii) Following 12 hour treatment with 1, 3, 10, 20 μM IPAG. FIG. 67C is a set of immunoblots of detergent soluble whole-cell lysates solved by denaturing SDS-PAGE. […] (iii) Quantification of bands in (i). […] (ii) Quantification of HER3 band in DMSO (vehicle control) treated conditions. (iii) Quantification of HER3 band in IPAG treated conditions.

MDA-MB-468 cells [1] = experiment: Cell death by trypan blue exclusion
Protocol: Trypan blue exclusion and propidium iodide staining were used to quantify general cell death and the presence of apoptotic cell death was confirmed by immunoblot. The percentage of dead cells in a given population was determined by quantifying the number of trypan blue positive (dead) cells and dividing by the total number of trypan blue positive and negative cells.

MDA-MB-468 cells [2] = experiment: Alamar blue assay of bortezomib potentiation; conditions: 10 μM IPAG with 0.01 μM bortezomib, 20 hours
Protocol: In vitro cell proliferation and cell death were quantified by Alamar blue reduction. To evaluate potentiation of proteasome inhibitor (bortezomib)-induced cell death by IPAG, MDA-MB-468 cells were treated for 20 hours with a 10 μM IPAG or 0.01 μM bortezomib alone or both drugs combined. Cell death was confirmed by trypan blue exclusion assay (data not shown). Data are representative of an experiment performed in triplicate.

[3] = system: MDA-MB-468 (GFP-LC3) cells; experiment: GFP-LC3 punctae (autophagosome formation) microscopy assay; conditions: for punctae per cell / mean number of punctae per cell: 24 hours; for autophagosomes per cell / GFP-LC3 punctae per cell: 10 μM for 20 hours
Protocol: The human GFP-LC3 expression plasmid, pEGFP-LC3 (a gift from Drs. Grazia Ambrosini and Gary K. Schwartz, MSKCC), was stably transfected into MDA-MB-468 and selected with 0.5 mg/ml G418 sulfate. Stable populations were generated and compared to parental MDA-MB-468 for Sigma1 expression and autophagic and growth inhibitory response to Sigma ligands. GFP-LC3 translocation (punctae formation) was assessed by microscopy in MDA-MB-468 (GFP-LC3) stable cell populations. For microscopy-based experiments, cells were seeded onto Lab-Tek II glass chamber slides (Nalge Nunc International). […] Images of GFP-LC3 punctae were acquired with a Zeiss Axioplan 2 Imaging widefield microscope using Axiovision LE software. Punctae were counted using the spot quantitation program in the Fluoro-Chem software package (Alpha Innotech) and confirmed in parallel by manual counting. Autophagosome formation in MDAMB-468 (GFP-LC3) cells was quantitated as the mean number of GFP-LC3 punctae per GFP positive cell.
Initially, an established immunoblot-based assay to detect microtubule associated protein light chain 3 (LC3) lipidation was used to test for the activation of autophagy. […] Since transient transfections can produce spurious GFP-LC3 aggregates, stable GFP-LC3 transfected populations of MDA-MB-468 (GFP-LC3) were generated. […]

**Q.** For `N=C(Nc1ccc(I)cc1)NC1C2CC3CC(C2)CC1C3` (centres unmarked) [IPAG, 1-(4-iodophenyl)-3-(2-adamantyl)guanidine], which “levels of HER2/3” value (HER2/3 in SkBr-3 cells) is on record?
**A.** The value was “time and dose-dependently causes decreased levels of HER2/3”.

**Q.** What about the “dead cells per well” value (MDA-MB-468 cells [1]; 10 μM, 24 hours, with 3-MA (5 mM) or siRNA knockdown of Beclin1) of the same compound?
**A.** The value was “over 33%”.

**Q.** What about the “proportion of dead cells (apoptotic cell death)” value (MDA-MB-468 cells [1]; 10 μM, 48 hours of continuous treatment) of the same compound?
**A.** Its value is 30±2%.

**Q.** And the “proportion of dead cells” value (MDA-MB-468 cells [1]; 24 hours, IRE1α knockdown)?
**A.** Its value is 47±8%.

**Q.** What about the “dead cells per well” value (MDA-MB-468 cells [1]; 24 hours, combined treatment with IPAG and 3-MA) of the same compound?
**A.** The value was 24±5%.

**Q.** What about the “proportion of dead cells” value (MDA-MB-468 cells [1]; 24 hours, control siRNA transfected cells) of the same compound?
**A.** The value was 9±4%.

**Q.** What about the “proportion of dead cells” value (MDA-MB-468 cells [1]; by 72 hours) of the same compound?
**A.** The value was > 75%.

**Q.** And the “dead cells per well” value (MDA-MB-468 cells [1]; knockdown of ATF4)?
**A.** Its value is 30±9%.

**Q.** And the “potentiation of bortezomib-induced cell death” value (MDA-MB-468 cells [2])?
**A.** The value was “potentiates bortezomib-induced adenocarcinoma cell death”.

**Q.** What about the punctae per cell ([3]; 10 μM IPAG alone, 3-MA experiment) of the same compound?
**A.** Its punctae per cell is 23±2 punctae per cell.

**Q.** And the punctae per cell ([3]; 10 μM IPAG with addition of 3-MA (5 mM))?
**A.** The punctae per cell was 12±1 punctae per cell.

**Q.** And the autophagosomes per cell ([3]; ATF4 knocked down)?
**A.** Its autophagosomes per cell is 5±1 autophagosomes per cell.

**Q.** What about the autophagosomes per cell ([3]; IRE1α knocked down) of the same compound?
**A.** The autophagosomes per cell was 9±2 autophagosomes per cell.

**Q.** What about the “GFP-LC3 punctae per cell” value ([3]; Sigma1-knockdown cells) of the same compound?
**A.** The value was 10±2 punctae per cell.

**Q.** And the “GFP-LC3 punctae per cell” value ([3]; control siRNA transfected cells)?
**A.** Its value is 28±4 punctae per cell.

**Q.** And the autophagosomes per cell ([3]; no UPR knockdown)?
**A.** Its autophagosomes per cell is 24±2 autophagosomes per cell.

**Q.** And the “mean number of punctae per cell” value ([3]; 10 μM, knockdown of Beclin1)?
**A.** Its value is 6±1 punctae per cell.

**Q.** And the “mean number of punctae per cell” value ([3]; 10 μM, without Beclin1 knockdown)?
**A.** The value was 28±3 punctae per cell.

**Q.** And the “time at which significant formation of autophagosomes was detected” value ([3]; 10 μM, GFP-LC3 punctae and LC3II immunoblot)?
**A.** The value was 6 to 12 h.

**Q.** What about the EC50 ([3]; Homo sapiens, MDA-MB-468, 24 hours of treatment, read-out: potency (EC50±S.E.M.) of autophagosome formation (GFP-LC3 punctae)) of the same compound?
**A.** Its EC50 is 9 ± 3 µM.

**Q.** And the autophagosome formation ([3]; IPAG alone, JNK inhibitor experiment)?
**A.** Its autophagosome formation is 23±2.

**Q.** And the autophagosome formation ([3]; IPAG and JNK inhibitor SP600125)?
**A.** The autophagosome formation was 7±1.

**Q.** What about the “concentration at which precipitous cell death occurred” value ([3]; following 24 hours of treatment) of the same compound?
**A.** Its value is 40 µM.
